From PubChem BioAssay AID256 (DTP/NCI, 2004)
“And” between values parts separate entries of the source, which are not always exact repeats. Equal values may be shown once. Toxic doses and inconclusive results are not listed.

Test system: CD2F1 mice, L1210 leukemia ip, survival T/C
Assay: NCI In Vivo Anticancer Drug Screen. Data for tumor model L1210 Leukemia (intraperitoneal) in CD2F1 (CDF1) mice
Conditions: higher = longer survival
In short: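 Implant tumor; dose compound or vehicle; measure endpoint in both groups; report treated divided by control.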

[1] = endpoint: mean survival time, dose: 25.0 mg/kg/injection, schedule: Q01DX009 (ip), vehicle: saline
[2] = endpoint: mean survival time, dose: 50.0 mg/kg/injection, schedule: Q01DX009 (ip), vehicle: saline
[3] = endpoint: mean survival time, dose: 100.0 mg/kg/injection, schedule: Q01DX009 (ip), vehicle: saline
[4] = endpoint: mean survival time, dose: 100.0 mg/kg/injection, schedule: Q04DX003 (ip), vehicle: saline with Tween-80
[5] = endpoint: mean survival time, dose: 200.0 mg/kg/injection, schedule: Q04DX003 (ip), vehicle: saline with Tween-80
[6] = endpoint: mean survival time, dose: 400.0 mg/kg/injection, schedule: Q04DX003 (ip), vehicle: saline with Tween-80
[7] = endpoint: mean survival time, dose: 200.0 mg/kg/injection, schedule: Q01DX009 (ip), vehicle: saline
[8] = endpoint: mean survival time, dose: 100.0 mg/kg/injection, schedule: Q04DX002 (ip), vehicle: saline with Tween-80
[9] = endpoint: mean survival time, dose: 200.0 mg/kg/injection, schedule: Q04DX002 (ip), vehicle: saline with Tween-80
[10] = endpoint: mean survival time, dose: 100.0 mg/kg/injection, schedule: Q01DX009 (ip), vehicle: saline with Tween-80

## CN(C)CCNc1ccc(CO)c2sc3ccc(O)cc3c(=O)c12
endpoint: median survival time, dose: 25.0 mg/kg/injection, schedule: Q01DX005 (ip), vehicle: saline with Tween-80
  T/C: 107 % of control
endpoint: median survival time, dose: 72.0 mg/kg/injection, schedule: Q01DX005 (ip), vehicle: saline with Tween-80
  T/C: 155 % of control
endpoint: median survival time, dose: 100.0 mg/kg/injection, schedule: Q01DX005 (ip), vehicle: saline with Tween-80
  T/C: 212 % of control
endpoint: median survival time, dose: 120.0 mg/kg/injection, schedule: Q01DX005 (ip), vehicle: saline with Tween-80
  T/C: 183 % of control
endpoint: median survival time, dose: 333.33 mg/kg/injection, schedule: Q01DX005 (ip), vehicle: saline with Tween-80
  T/C: 112 % of control
endpoint: median survival time, dose: 400.0 mg/kg/injection, schedule: Q01DX005 (ip), vehicle: saline with Tween-80
  T/C: 113 % of control and 97 % of control
endpoint: median survival time, dose: 555.55 mg/kg/injection, schedule: Q01DX005 (ip), vehicle: saline with Tween-80
  T/C: 111 % of control

## O=C1c2ccccc2C(=O)c2c(O)c3c(c(O)c21)CCCC3O (stereo not given)
endpoint: mean survival time, dose: 0.05 mg/kg/injection, schedule: Q01DX001 (ip), vehicle: saline
  T/C: 101 % of control
endpoint: mean survival time, dose: 0.1 mg/kg/injection, schedule: Q01DX001 (ip), vehicle: saline
  T/C: 98 % of control
endpoint: mean survival time, dose: 0.2 mg/kg/injection, schedule: Q01DX001 (ip), vehicle: saline
  T/C: 101 % of control
endpoint: mean survival time, dose: 0.4 mg/kg/injection, schedule: Q01DX001 (ip), vehicle: saline
  T/C: 101 % of control
endpoint: mean survival time, dose: 0.8 mg/kg/injection, schedule: Q01DX001 (ip), vehicle: saline
  T/C: 101 % of control

## CCC1(C)CC(=O)NC(=O)C1
endpoint: mean survival time, dose: 2.5 mg/kg/injection, schedule: Q01DX009 (ip), vehicle: saline with Tween-80
  T/C: 97 % of control
endpoint: mean survival time, dose: 5.0 mg/kg/injection, schedule: Q01DX009 (ip), vehicle: saline with Tween-80
  T/C: 100 % of control
endpoint: mean survival time, dose: 10.0 mg/kg/injection, schedule: Q01DX009 (ip), vehicle: saline with Tween-80
  T/C: 94 % of control

## Cc1nccn1C(C)c1ccccc1 (stereo not given)
endpoint: mean survival time, dose: 10.0 mg/kg/injection, schedule: Q04DX003 (ip), vehicle: saline
  T/C: 105 % of control
endpoint: mean survival time, dose: 20.0 mg/kg/injection, schedule: Q04DX003 (ip), vehicle: saline
  T/C: 94 % of control
endpoint: mean survival time, dose: 40.0 mg/kg/injection, schedule: Q04DX003 (ip), vehicle: saline
  T/C: 92 % of control

## N=C(N)SC1c2ccccc2-c2ccc(N)cc21 (stereo not given)
[1]
  T/C: 107 % of control
[2]
  T/C: 102 % of control
[3]
  T/C: 109 % of control
[4]
  T/C: 103 % of control

## CCOC(=O)C1(C(=O)O)CC2C(C)C=CC(C)C2C1 (stereo not given)
endpoint: mean survival time, dose: 100.0 mg/kg/injection, schedule: Q01DX009 (ip), vehicle: Klucel (hydroxypropylcellulose) (HPC)
  T/C: 100 % of control
endpoint: mean survival time, dose: 200.0 mg/kg/injection, schedule: Q01DX009 (ip), vehicle: Klucel (hydroxypropylcellulose) (HPC)
  T/C: 102 % of control
endpoint: mean survival time, dose: 400.0 mg/kg/injection, schedule: Q01DX009 (ip), vehicle: Klucel (hydroxypropylcellulose) (HPC)
  T/C: 96 % of control

## CC(C)CCCC(C)C1CCC2C3CC=C4CC(C(=O)O)CCC4C3CCC12C (stereo not given)
[4]
  T/C: 92 % of control
[5]
  T/C: 88 % of control
[6]
  T/C: 88 % of control

## CC(C)(C)c1nc2ccccc2p1-c1ccccc1 (stereo not given)
endpoint: mean survival time, dose: 100.0 mg/kg/injection, schedule: Q01DX001 (ip), vehicle: other
  T/C: 98 % of control
endpoint: mean survival time, dose: 200.0 mg/kg/injection, schedule: Q01DX001 (ip), vehicle: other
  T/C: 91 % of control
endpoint: mean survival time, dose: 400.0 mg/kg/injection, schedule: Q01DX001 (ip), vehicle: other
  T/C: 95 % of control

## c1ccc2nc(CCc3ccc4ccccc4n3)ccc2c1
[2]
  T/C: 96 % of control
[3]
  T/C: 100 % of control
[7]
  T/C: 102 % of control

## CCCCN(CNC(C)=O)N=O
[8]
  T/C: 95 % of control
[9]
  T/C: 88 % of control
endpoint: mean survival time, dose: 400.0 mg/kg/injection, schedule: Q04DX002 (ip), vehicle: saline with Tween-80
  T/C: 100 % of control

## CC(C)(C)NSc1nc2ccccc2s1
[4]
  T/C: 96 % of control
[5]
  T/C: 96 % of control

## CCNc1ncnc2c1c(C(N)=S)cn2C1OC(CO)C(O)C1O (stereo not given)
endpoint: mean survival time, dose: 6.25 mg/kg/injection, schedule: Q01DX009 (ip), vehicle: saline
  T/C: 116 % of control
endpoint: mean survival time, dose: 12.5 mg/kg/injection, schedule: Q01DX009 (ip), vehicle: saline
  T/C: 116 % of control
[1]
  T/C: 150 % of control

## CC1=C(N2CC2)C(=O)c2c(COC(N)=O)c3n(c2C1=O)CCC3OC(N)=O (stereo not given)
endpoint: mean survival time, dose: 1.5 mg/kg/injection, schedule: Q01DX001 (ip), vehicle: distilled water + Tween-80
  T/C: 108 % of control
endpoint: mean survival time, dose: 3.0 mg/kg/injection, schedule: Q01DX001 (ip), vehicle: distilled water + Tween-80
  T/C: 109 % of control and 112 % of control
endpoint: mean survival time, dose: 6.0 mg/kg/injection, schedule: Q01DX001 (ip), vehicle: distilled water + Tween-80
  T/C: 114 % of control and 121 % of control
endpoint: mean survival time, dose: 12.0 mg/kg/injection, schedule: Q01DX001 (ip), vehicle: distilled water + Tween-80
  T/C: 120 % of control
endpoint: mean survival time, dose: 48.0 mg/kg/injection, schedule: Q01DX001 (ip), vehicle: distilled water + Tween-80
  T/C: 120 % of control

## C=CCOC(=O)Nc1ccc(S(=O)(=O)N(CCC)CCC)cc1
endpoint: mean survival time, dose: 100.0 mg/kg/injection, schedule: Q01DX001 (ip), vehicle: saline
  T/C: 103 % of control
endpoint: mean survival time, dose: 200.0 mg/kg/injection, schedule: Q01DX001 (ip), vehicle: saline
  T/C: 101 % of control
endpoint: mean survival time, dose: 400.0 mg/kg/injection, schedule: Q01DX001 (ip), vehicle: saline
  T/C: 89 % of control

## Cc1nc(N)[nH]c(=O)c1NC(=O)c1ccccc1N
endpoint: mean survival time, dose: 100.0 mg/kg/injection, schedule: Q01DX001 (ip), vehicle: saline with Tween-80
  T/C: 94 % of control
endpoint: mean survival time, dose: 200.0 mg/kg/injection, schedule: Q01DX001 (ip), vehicle: saline with Tween-80
  T/C: 87 % of control
endpoint: mean survival time, dose: 400.0 mg/kg/injection, schedule: Q01DX001 (ip), vehicle: saline with Tween-80
  T/C: 89 % of control

## O=C(O)CC(=O)O.[NH-]CC(O)C[NH-].[Pt+2]
endpoint: median survival time, dose: 20.0 mg/kg/injection, schedule: Q04DX003 (ip), vehicle: water
  T/C: 96 % of control
endpoint: median survival time, dose: 40.0 mg/kg/injection, schedule: Q04DX003 (ip), vehicle: water
  T/C: 110 % of control

## O=C1NN=C(C2CCCCC2)C12CCCCC2
[4]
  T/C: 96 % of control
[5]
  T/C: 100 % of control
[6]
  T/C: 94 % of control

## CCCCCCCOc1ccc(N=[N+]([O-])c2ccc(OCCCCCCC)cc2)cc1
[4]
  T/C: 95 % of control
[5]
  T/C: 91 % of control
[6]
  T/C: 89 % of control

## Nc1ccnnc1
endpoint: mean survival time, dose: 100.0 mg/kg/injection, schedule: Q04DX003 (ip), vehicle: saline
  T/C: 98 % of control
endpoint: mean survival time, dose: 200.0 mg/kg/injection, schedule: Q04DX003 (ip), vehicle: saline
  T/C: 101 % of control

## C1CNCCNCCNCCN1
endpoint: mean survival time, dose: 12.5 mg/kg/injection, schedule: Q01DX009 (ip), vehicle: water
  T/C: 100 % of control
endpoint: mean survival time, dose: 25.0 mg/kg/injection, schedule: Q01DX009 (ip), vehicle: water
  T/C: 100 % of control
endpoint: mean survival time, dose: 50.0 mg/kg/injection, schedule: Q01DX009 (ip), vehicle: water
  T/C: 96 % of control
endpoint: mean survival time, dose: 100.0 mg/kg/injection, schedule: Q01DX009 (ip), vehicle: water
  T/C: 94 % of control

## O=[N+]([O-])c1ccc2c(N=Nc3c(O)ccc4ccccc34)c(O)cc(S(=O)(=O)O)c2c1
[2]
  T/C: 119 % of control
[3]
  T/C: 100 % of control
[7]
  T/C: 109 % of control

## c1ccc(CCN2COc3c(ccc4cccnc34)C2)cc1
endpoint: mean survival time, dose: 12.5 mg/kg/injection, schedule: Q04DX003 (ip), vehicle: saline with Tween-80
  T/C: 102 % of control
endpoint: mean survival time, dose: 25.0 mg/kg/injection, schedule: Q04DX003 (ip), vehicle: saline with Tween-80
  T/C: 91 % of control
endpoint: mean survival time, dose: 50.0 mg/kg/injection, schedule: Q04DX003 (ip), vehicle: saline with Tween-80
  T/C: 98 % of control

## CSc1cc(C)c(O)c(C)c1
[4]
  T/C: 100 % of control
[5]
  T/C: 104 % of control
[6]
  T/C: 102 % of control

## CC(=O)NS(=O)(=O)c1ccc(N=Cc2ccc3c(c2)OCO3)cc1
[10]
  T/C: 100 % of control
endpoint: mean survival time, dose: 200.0 mg/kg/injection, schedule: Q01DX009 (ip), vehicle: saline with Tween-80
  T/C: 95 % of control
endpoint: mean survival time, dose: 400.0 mg/kg/injection, schedule: Q01DX009 (ip), vehicle: saline with Tween-80
  T/C: 94 % of control

## Nc1nc2ncc(CNc3ccc(C(=O)NC(CCC(=O)O)C(=O)O)cn3)nc2c(=O)[nH]1 (stereo not given)
endpoint: mean survival time, dose: 75.0 mg/kg/injection, schedule: Q01DX001 (ip), vehicle: other
  T/C: 102 % of control

## COc1ccc(C(=O)CC(C(=O)O)c2ccc3c(c2)OCO3)cc1OC (stereo not given)
[4]
  T/C: 101 % of control
[5]
  T/C: 101 % of control
[6]
  T/C: 101 % of control

## Cc1ccc(S(=O)(=O)NC(=O)OCCc2c3ccccc3nc3ccccc23)cc1
endpoint: mean survival time, dose: 100.0 mg/kg/injection, schedule: Q04DX002 (ip), vehicle: other
  T/C: 97 % of control
[8]
  T/C: 97 % of control
endpoint: mean survival time, dose: 200.0 mg/kg/injection, schedule: Q04DX002 (ip), vehicle: other
  T/C: 97 % of control
[9]
  T/C: 109 % of control

## O=C(O)/C=C/C(=O)Nc1cccc2c1C(=O)c1ccccc1-2
endpoint: mean survival time, dose: 25.0 mg/kg/injection, schedule: Q01DX009 (ip), vehicle: saline with Tween-80
  T/C: 97 % of control
endpoint: mean survival time, dose: 50.0 mg/kg/injection, schedule: Q01DX009 (ip), vehicle: saline with Tween-80
  T/C: 94 % of control
[10]
  T/C: 102 % of control
